From ChEMBL document CHEMBL1201862, “PubChem BioAssay data set” (2004)
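Step 1: Grow cells in 96-well plates. Step 2: Expose to compound for 48 hours at 5 concentrations. Step 3: Interpolate endpoints linearly; if unreached, use highest concentration. The concentration for 50% growth inhibition is given as GI50.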 Activity calls are given as the source filed them. No stated cut-off is given here; in the data, active = GI50 up to about 1.1 µM and inactive = higher.

Tests used:
Assay in all cases: inhibition of tumour cell growth, NCI panel, 48 h
EKVX = system: EKVX
OVCAR-5 = system: OVCAR-5
HOP-92 = system: HOP-92
NCI-H23 = system: NCI-H23
BT-549 = system: BT-549
HCT-116 = system: HCT-116
UACC-62 = system: UACC-62
MDA-MB-231 = system: MDA-MB-231
SNB-19 = system: SNB-19
CAKI-1 = system: CAKI-1
M14 = system: M14
DMS-273 = system: DMS-273
NCI-H226 = system: NCI-H226
NCI-H522 = system: NCI-H522
ACHN = system: ACHN
T47D = system: T47D
LOX IMVI = system: LOX IMVI
HOP-62 = system: HOP-62
NCI/ADR-RES = system: NCI/ADR-RES
KM12 = system: KM12

| Structure (SMILES) | GI50 (EKVX) | GI50 (OVCAR-5) | GI50 (HOP-92) | GI50 (NCI-H23) | GI50 (BT-549) | GI50 (HCT-116) | GI50 (UACC-62) | GI50 (MDA-MB-231) | GI50 (SNB-19) | GI50 (CAKI-1) | GI50 (M14) | GI50 (DMS-273) | GI50 (NCI-H226) | GI50 (NCI-H522) | GI50 (ACHN) | GI50 (T47D) | GI50 (LOX IMVI) | GI50 (HOP-62) | GI50 (NCI/ADR-RES) | GI50 (KM12) |
| --- | --- | --- | --- | --- | --- | --- | --- | --- | --- | --- | --- | --- | --- | --- | --- | --- | --- | --- | --- | --- |
| Cc1nc2c(nc1C)C(=O)c1ccccc1C2=O | 15.4 µM (inactive) | 4.97 µM (inactive) | 18.1 µM (inactive) | 0.5 µM (active) | 1.35 µM (inactive) | 4.65 µM (inactive) | 0.859 µM (active) | 7.55 µM (inactive) | 5.37 µM (inactive) | 24.4 µM (inactive) | 0.871 µM (active) | 3.41 µM (inactive) | 4.9 µM (inactive) | 3.54 µM (inactive) | 10.4 µM (inactive) | 2.99 µM (inactive) | 1.05 µM (active) | 5.2 µM (inactive) | 2.87 µM (inactive) | 5.69 µM (inactive) |
| COc1ccc(NC(=O)C(=O)C2CNC(=O)NC2=O)c(OC)c1 (configuration not stated) | > 100 µM (inactive) | > 100 µM (inactive) | > 100 µM (inactive) | > 100 µM (inactive) |  | > 100 µM (inactive) | > 100 µM (inactive) |  | > 100 µM (inactive) | > 100 µM (inactive) | > 100 µM (inactive) | > 100 µM (inactive) | > 100 µM (inactive) | > 100 µM (inactive) | > 100 µM (inactive) |  | > 100 µM (inactive) | > 100 µM (inactive) |  | > 100 µM (inactive) |
| CN(C)CCC(=O)N1C/C(=C\c2ccc(Cl)c(Cl)c2)C(=O)/C(=C/c2ccc(Cl)c(Cl)c2)C1 | 0.565 µM (active) | 0.731 µM (active) | 0.394 µM (active) | 0.504 µM (active) | 0.426 µM (active) | 0.119 µM (active) | 0.608 µM (active) | 0.127 µM (active) | 0.287 µM (active) | 0.394 µM (active) | 0.291 µM (active) | 0.15 µM (active) | 0.705 µM (active) | 0.2 µM (active) | 0.329 µM (active) | 0.471 µM (active) | 0.1 µM (active) | 0.303 µM (active) | 0.147 µM (active) | 0.279 µM (active) |
| Cc1ccc(C(=O)c2nnc(C(=O)c3ccc(C)cc3)nn2)cc1 | 59.6 µM (inactive) | 81.1 µM (inactive) | 32.1 µM (inactive) | > 100 µM (inactive) |  | 57.5 µM (inactive) | 36.1 µM (inactive) |  | 41.5 µM (inactive) | 74.3 µM (inactive) | 22.2 µM (inactive) | 39.4 µM (inactive) | 56 µM (inactive) | 35.5 µM (inactive) | 76 µM (inactive) |  | 17.6 µM (inactive) | 39.4 µM (inactive) |  | 62.7 µM (inactive) |
| Cc1ccc(C(=O)N(C2CCCCC2)C2CCCCC2)cc1/N=N/N(C)C | 16.3 µM (inactive) | 19 µM (inactive) | 11 µM (inactive) | 11.3 µM (inactive) | 13.9 µM (inactive) | 5.51 µM (inactive) | 7.78 µM (inactive) | 12.6 µM (inactive) | 12.6 µM (inactive) | 12.9 µM (inactive) | 17.6 µM (inactive) | 17.1 µM (inactive) | 19.7 µM (inactive) | 6.01 µM (inactive) | 8.83 µM (inactive) | 18 µM (inactive) | 15.8 µM (inactive) | 12.3 µM (inactive) | 19.5 µM (inactive) | 6.71 µM (inactive) |
| COC(=O)C1(O)CC(=O)CCC1c1ccc(OC)cc1 (configuration not stated) | > 100 µM (inactive) | > 100 µM (inactive) | > 100 µM (inactive) | > 100 µM (inactive) |  | > 100 µM (inactive) | > 100 µM (inactive) |  | > 100 µM (inactive) | > 100 µM (inactive) | > 100 µM (inactive) | > 100 µM (inactive) | > 100 µM (inactive) | > 100 µM (inactive) | > 100 µM (inactive) |  | > 100 µM (inactive) | > 100 µM (inactive) |  | > 100 µM (inactive) |
| O=C(N[C@H](CO)[C@H](O)c1ccc([N+](=O)[O-])cc1)C(Cl)Cl [CHLORAMPHENICOL] | > 100 µM (inactive) | > 100 µM (inactive) | 85.3 µM (inactive) | > 100 µM (inactive) | > 100 µM (inactive) | > 100 µM (inactive) | > 100 µM (inactive) | 47.8 µM (inactive) | > 100 µM (inactive) | > 100 µM (inactive) | > 100 µM (inactive) | > 100 µM (inactive) | > 100 µM (inactive) | > 100 µM (inactive) | > 100 µM (inactive) |  | > 100 µM (inactive) | > 100 µM (inactive) | > 100 µM (inactive) | > 100 µM (inactive) |
